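Exposure lasted 48 hours, with cells grown in 96-well plates and compounds tested at five concentrations. Definition used: TGI = concentration required for complete inhibition of growth.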
Tests used:
Experiment in all cases: inhibition of tumour cell growth, NCI panel, 48 h
SW-620 colon = system: SW-620 colon
MCF7 breast = system: MCF7 breast
MDA-MB-435 = system: MDA-MB-435
MOLT-4 leukemia = system: MOLT-4 leukemia
NCI-H460 lung = system: NCI-H460 lung
TK-10 renal = system: TK-10 renal
HOP-92 NSCLC = system: HOP-92 NSCLC
M14 melanoma = system: M14 melanoma
HL-60(TB) leukemia = system: HL-60(TB) leukemia
T-47D breast = system: T-47D breast

SMILES | TGI (SW-620 colon) | TGI (MCF7 breast) | TGI (MDA-MB-435) | TGI (MOLT-4 leukemia) | TGI (NCI-H460 lung) | TGI (TK-10 renal) | TGI (HOP-92 NSCLC) | TGI (M14 melanoma) | TGI (HL-60(TB) leukemia) | TGI (T-47D breast)
CN1CC2=C(OC(N)=C(C#N)C2c2cccs2)/C(=C/c2cccs2)C1 (stereo not given) | > 100 µM | 8.33 µM | 22.5 µM | > 26.5 µM | 58.9 µM | > 100 µM | > 100 µM | > 55.9 µM | 12 µM | 1.47 µM
COc1ccc2nc3cc(Cl)ccc3c(NCCCCCC(=O)NC(COc3cnc4c(ccc5cccnc54)c3)COc3cnc4c(ccc5cccnc54)c3)c2c1 | 24.4 µM | 17.7 µM | > 100 µM | 11.6 µM | 23.1 µM | 91.6 µM | > 100 µM | > 100 µM | 15.1 µM | 28.6 µM
CC(=O)NNc1nc(C)c(C(/C=C/c2ccc3c(c2)OCO3)=N/Nc2ccccc2)s1 | > 100 µM | > 100 µM | > 100 µM | > 100 µM | > 100 µM | > 100 µM | > 100 µM | > 100 µM | > 100 µM | > 100 µM
Cc1ccc(C)n2c1nc1ccc3ccccc3c12 | > 100 µM | > 100 µM | > 100 µM | > 100 µM | > 100 µM | > 100 µM | > 100 µM | > 100 µM | > 100 µM | > 100 µM
CCNC(=O)Nc1cccc(C)n1 | > 100 µM | > 100 µM | > 100 µM | > 100 µM | > 100 µM | > 100 µM | > 100 µM | > 100 µM | > 100 µM | > 100 µM
CN(C)c1ccc(/C=N/Nc2nc3ccccc3c(=O)n2-c2ccccc2)cc1 | > 100 µM | > 100 µM | > 100 µM | > 100 µM | > 100 µM | > 100 µM | 85.9 µM | > 100 µM | > 100 µM | > 100 µM
CC(C)/C(Cl)=N/OC(=O)Nc1ccc(F)c(Cl)c1 | 3.47 µM | 22.4 µM | 23.4 µM | 4.72 µM | 35.4 µM | 31.9 µM | 3 µM | 10.6 µM | 5.23 µM | 12.7 µM
Cc1ccc(C(=O)N(C2CCCCC2)C2CCCCC2)cc1N=NN(C)C | 24.5 µM | 29.7 µM | 30 µM | 76.7 µM | 35.5 µM | 24 µM | 23.4 µM | 32.6 µM | 23.7 µM | 38.7 µM
CC(=O)NCCCCNCCCNC(C)=O | > 100 µM | > 100 µM | > 100 µM | > 100 µM | > 100 µM | > 100 µM | > 100 µM | > 100 µM | > 100 µM | > 100 µM
Cn1ccnc1S/C(=C\C=C(C#N)C#N)c1ccc(Cl)cc1 | 11.9 µM | 2.62 µM | 2.45 µM | 6.25 µM | 27.2 µM | 2.81 µM | 4.18 µM | 5.02 µM | 3.42 µM | > 100 µM
CC(=O)O/C=C\OC1CCCC1(c1ccccc1)c1ccccc1 (stereo not given) | 4.72 µM | 5.42 µM | 4.11 µM | 9.07 µM | 26.6 µM | 9.33 µM | 3.89 µM | 5.75 µM | 2.89 µM | 6.19 µM
CC(C)Oc1c(-c2c(OC(C)C)c(=O)c2=O)c(=O)c1=O | > 62 µM | > 41.8 µM | > 41.6 µM | > 68.1 µM | > 100 µM | > 100 µM | > 100 µM | > 100 µM | > 100 µM | > 100 µM
Cc1ccc(F)cc1NC(=O)O/N=C(\Cl)C(C)C | 3.18 µM | 20.8 µM | 32.2 µM | 4.83 µM | 86 µM | 15 µM | 7.07 µM | 12.2 µM | > 21.2 µM | 33.6 µM
CSc1nc(NC2CCCC2)c2cc[nH]c2n1 | > 100 µM | > 100 µM | > 100 µM | > 100 µM | > 100 µM | > 100 µM | > 100 µM | > 100 µM | 47.4 µM | > 100 µM
COc1cccc(N2C(=O)C3c4[nH]c5ccccc5c4C4c5ccccc5CCC4C3C2=O)c1 (stereo not given) | > 10 µM | > 10 µM | > 10 µM | > 10 µM | > 10 µM | > 10 µM | > 10 µM | > 10 µM | > 10 µM | > 10 µM
N=C(N)SCCON1C(=O)c2ccccc2C1=O | > 100 µM | > 100 µM | > 100 µM | > 100 µM | > 100 µM | > 100 µM | > 100 µM | > 100 µM | > 100 µM | > 100 µM
Cc1ccc2c(=O)cc(-c3csc4ccccc34)[nH]c2n1 | > 100 µM | 18.1 µM | < 0.01 µM | 1.09 µM | > 33.9 µM | 9.78 µM | > 81 µM | 0.031 µM | 0.0258 µM | > 100 µM
C=CC[C@H]1[C@@H](O[Si](C)(C)C(C)(C)C)[C@H](n2ccc(=O)[nH]c2=O)O[C@@H]1CO[Si](C)(C)C(C)(C)C | 3.39 µM | 3.8 µM | 4.36 µM | 8.66 µM | 4.06 µM | 7.02 µM | 2.72 µM | 3.23 µM | 2.59 µM | 9.11 µM

— PubChem BioAssay (NCI)
